# Assay results from ChEMBL document CHEMBL1921682, “Molecular properties prediction and synthesis of novel 1,3,4-oxadiazole analogues as potent antimicrobial and antitubercular agents” (Bioorg Med Chem Lett, 2011).
# Tested on: Mycobacterium tuberculosis
# Experiment: not given
# Assay type: functional
row,Compound,Ratio
1,Cc1c(NCc2nnc(-c3ccc(N)cc3)o2)c(=O)n(-c2ccccc2)n1C,1.4
2,Cc1c(NCc2nnc(-c3ccncc3)o2)c(=O)n(-c2ccccc2)n1C,7.6

# Tested on: Mycobacterium tuberculosis
# Experiment: microbe, parasite or virus in culture
row,Compound,MIC90
1,Cc1c(NCc2nnc(-c3ccccc3Cl)o2)c(=O)n(-c2ccccc2)n1C,12.7 µM
2,Cc1c(NCc2nnc(-c3ccc(Cl)cc3)o2)c(=O)n(-c2ccccc2)n1C,12.7 µM
3,Cc1c(NCc2nnc(-c3ccc(N)cc3)o2)c(=O)n(-c2ccccc2)n1C,8.29 µM
4,Cc1c(NCc2nnc(-c3ccncc3)o2)c(=O)n(-c2ccccc2)n1C,1.52 µM
5,Cc1c(NCc2nnc(-c3ccccc3)o2)c(=O)n(-c2ccccc2)n1C,13.8 µM
6,Cc1ccc(-c2nnc(CNc3c(C)n(C)n(-c4ccccc4)c3=O)o2)cc1,13.3 µM
7,Cc1c(NCc2nnc(Cc3ccccc3)o2)c(=O)n(-c2ccccc2)n1C,> 13.3 µM
8,Cc1c(NCc2nnc(COc3ccccc3)o2)c(=O)n(-c2ccccc2)n1C,12.8 µM
9,Cc1c(NCc2nnc(-c3cccs3)o2)c(=O)n(-c2ccccc2)n1C,13.6 µM
10,NNC(=O)c1ccncc1 [ISONIAZID],11.6 µM
